In ChEMBL document CHEMBL6134836, “Medicinal Chemistry: A Key Driver in Achieving the Global Sustainable Development Goals” (J Med Chem, 2025):

What was measured:
dengue virus type 3 = assay: Antiviral activity against Dengue virus 3 infected in syrian hamster BHK-21 cells assessed as inhibition of plaque formation pretreated with compound for 45 mins followed by viral infection for 24 hrs; assay type: functional; settings: BHK-21, 24.75 h, time 1485 min
dengue virus type 2 = assay: Antiviral activity against Dengue virus 2 infected in syrian hamster BHK-21 cells assessed as inhibition of plaque formation pretreated with compound for 45 mins followed by viral infection for 24 hrs; assay type: functional; settings: BHK-21, 24.75 h, time 1485 min
[1] = Cytotoxicity against mouse BaF3 cells expressing BCR-ABL assessed as cell viability; assay type: toxicity, cell-based
dengue virus type 1 = assay: Antiviral activity against Dengue virus 1 infected in syrian hamster BHK-21 cells assessed as inhibition of plaque formation pretreated with compound for 45 mins followed by viral infection for 24 hrs; assay type: functional; settings: BHK-21, 24.75 h, time 1485 min
dengue virus type 4 = assay: Antiviral activity against Dengue virus 4 infected in syrian hamster BHK-21 cells assessed as inhibition of plaque formation pretreated with compound for 45 mins followed by viral infection for 24 hrs; assay type: functional; settings: BHK-21, 24.75 h, time 1485 min
Kunjin virus = assay: Antiviral activity against Kunjin virus; assay type: functional, organism-based; settings: West Nile virus

Q: What does the source list for `NC(=O)c1cccc(-c2cc(Nc3ccc(OC(F)(F)F)cc3)ncn2)c1`?
A: IC90 (dengue virus type 3): 20 µM; IC90 (dengue virus type 2): 20 µM; IC50 [1]: > 10 µM; IC90 (dengue virus type 1): 20 µM; IC90 (dengue virus type 4): 20 µM; EC50 (Kunjin virus): > 20 µM
